In publication PMC3577726 (PLoS ONE, 2013):
No end group written: not given here.

How the values were obtained:
Male C57BL/6J mice [1] = assay: Serum insulin concentration after intraperitoneal or oral treatment, with or without sitagliptin and exendin(9–39); format: in vivo, mouse; settings: for Serum insulin concentration, i.p. 7 µg/kg alone / Serum insulin concentration, oral 10 µg/kg: blood 20 min later; for Serum insulin concentration, i.p. 7 µg/kg alone: four to six mice; for Serum insulin concentration, oral 10 µg/kg: 10 µg/kg orally, with or without sitagliptin and exendin(9–39)
Method: (§1) Male C57BL/6J mice (Jackson Laboratory, Bar Harbor, ME) were maintained in a specific pathogen-free facility under a 12 h-light, 12 h-dark cycle and were moved to a conventional facility for experiments at 6 to 8 weeks of age. All animal experiments were approved by the animal ethics committee of Kyushu University. Animals were anesthetized with sevoflurane and blood (maximally up to 100 µl) was collected from the orbital plexus of mice treated as indicated. Dipeptidyl peptidase (DPP)-IV inhibitor (Merck-Millipore, Billerica, MA) was added to the samples to a final concentration of 100 µM.
(B, C) Mice deprived of food for 5 h (blood glucose level, 103.5 mg/dl) were administered sitagliptin (1 µg/kg) or saline orally and then 30 min later were treated with ucOC or GlaOC intraperitoneally (7 µg/kg) (B) or orally (10 µg/kg) (C) in combination with intraperitoneal injection of exendin(9–39) (25 nmol/kg) or saline. […] All data are means ± SEM for four to six mice. *P < 0.05, **P < 0.01, †P = 0.06 versus control (open bar) or for the indicated comparisons (Student's t test).

Male C57BL/6J mice [2] = assay: Serum GLP-1 concentration after intraperitoneal administration of OC; format: in vivo, mouse
Method: (§2) Figure 3 Effect of intraperitoneal or oral administration of OC on serum GLP-1 concentration. (A) Mice were deprived of food for 5 h and then injected intraperitoneally with saline (control) or the indicated doses of recombinant ucOC, of GlaOC. Blood was collected 20 min later for determination of the serum concentration of GLP-1. Part of mice was orally administered with sitagliptin (1 µg/kg) 30 min before injection of OC. (B) Mice deprived of food for 5 h were treated orally with saline (control) or the indicated doses of ucOC or GlaOC. Blood samples collected 20 min later were assayed for serum GLP-1 concentration. All data are means ± SEM for five to seven mice. *P < 0.05, **P < 0.01 versus control (Student's t test).

Male C57BL/6J mice [3] = tested on: Male C57BL/6J mice
Method: as §1

STC-1 cells = assay: GLP-1 secretion from STC-1 cells (ELISA of culture supernatant); format: cell-based, mouse
Method: STC-1 cells (kindly provided from Dr. G. Tsujimoto, Kyoto University), a mouse enteroendocrine cell line were cultured under a humidified atmosphere of 5% CO2 at 37 °C in Dulbecco's modified Eagle's medium supplemented with 15% horse serum, 5% fetal bovine serum, penicillin (100 U/ml), and streptomycin (0.1 mg/ml). The cells were routinely passaged at 80 to 90% confluence.
STC-1 cells in a six-well plate were washed three times and then incubated with recombinant mouse ucOC or with GlaOC (ANA Spec, Fremont, CA) in Hanks' balanced salt solution for 60 min at 37 °C. The culture supernatants were then assayed for GLP-1 with ELISA kit (Shibayagi, Gunma, Japan).
Figure 2 OC-induced GLP-1 secretion in STC-1 cells. STC-1 cells were incubated for 60 min with vehicle (control) or the indicated concentrations of ucOC, GlaOC, or PMA. Data are expressed relative to the control value (33.1 pg per 1 × 10^5 cells) and are means ± SEM from four to eight independent experiments. *P < 0.05, **P < 0.01 versus control (Student's t test).

Male C57BL/6J mice [4] = assay: Serum GLP-1 concentration after oral administration of OC; format: in vivo, mouse; settings: mice fasted 5 h, no sitagliptin pretreatment, blood 20 min later, five to seven mice
Method: as §2

[5] = mouse, in vivo
Method: Serum OC concentrations were measured with ELISA kit for mouse OC (Biomedical Technologies), which is formulated for both ucOC and GlaOC, with the two forms being discriminated with the use of hydroxyapatite. Serum (50 µl) was thus mixed with 10 mg of hydroxyapatite (Sigma-Aldrich) and rotated at 4 °C for 1 h, after which the hydroxyapatite (and bound GlaOC) was removed by centrifugation and the supernatant was assayed for ucOC.
Figure 5 Serum levels of total OC and ucOC after intraperitoneal or oral administration of ucOC or GlaOC. Serum levels of total OC (A) or ucOC (B) were measured 20 min after administration of ucOC or GlaOC at a dose of 7 µg/kg intraperitoneally (i.p.) or 10 µg/kg orally (p.o.) in mice that had been deprived of food for 5 h; black circles indicate values for individual mice, with the horizontal bars representing the mean values. *P < 0.05 versus saline-treated animals [one-way ANOVA followed by either Dunnett's multiple-comparison test (A) or Tukey's HSD post hoc test (B)].

[6] = Absorption of 125I-labeled ucOC into the systemic circulation (blood radioactivity); format: in vivo, mouse; settings: n = 5 each
Method: An expression vector for a glutathione S-transferase-ucOC fusion protein was constructed by introduction of mouse OC cDNA into the vector pGEX-4T-1 (GE Healthcare, Buckinghamshire, UK). The fusion protein was produced in bacteria and purified with glutathione-Sepharose beads (GE Healthcare) according to standard procedures. The final washes of the beads were performed with a buffer containing 0.1% Triton X-114 (Sigma-Aldrich, St. Louis, MO) and then with the same buffer without detergent in order to remove endotoxin [17]. […] The purity of the ucOC preparation was assessed by sodium dodecyl sulfate-polyacrylamide gel electrophoresis with Tris-Tricine and staining with Coomassie blue, and the concentration and integrity of the protein were determined with an enzyme-linked immunosorbent assay (ELISA) kit for mouse OC (Biomedical Technologies, Stoughton, MA). […]
Figure 6 Absorption of ^125I-labeled ucOC into the systemic circulation. Mice were administered ^125I-labeled ucOC (5 µg/kg, 4,000 to 6,000 cpm) intraperitoneally (circles, n = 5) or orally (squares, n = 5), and blood was collected into tubes containing 5 mM EDTA (to prevent coagulation) at 30 and 60 min thereafter for measurement of radioactivity. The percentage of the administered radioactivity present in the circulation was calculated assuming a total blood volume of 2 ml. […]

[7] = cited from earlier work

## N[C@@H](CC(=O)N1CCn2c(nnc2C(F)(F)F)C1)Cc1cc(F)c(F)cc1F [Sitagliptin, sitagliptin, reference compound]
Male C57BL/6J mice [1]; mice fasted 5 h, sitagliptin 1 µg/kg orally
  Serum insulin concentration, sitagliptin alone: small increase in the serum insulin concentration

## GlaOC: γ-carboxylated form of the bone-derived protein osteocalcin (ANA Spec) (YLGASVPSPDPLEPTREQCELNPACDELSDQYGLKTAYKRIYGITI; ends and bridges not checked; also: γ-carboxylated on three glutamic acid residues (places not given here); UniProt P86546 50-95, looked up)
Male C57BL/6J mice [2]; mice fasted 5 h, oral sitagliptin 1 µg/kg 30 min before, i.p., blood 20 min later
  Serum GLP-1 level, i.p., sitagliptin-pretreated mice: did not increase the serum GLP-1 level
Male C57BL/6J mice [3]; fasted mice, data not shown
  Serum GLP-1 level after tail vein injection of GlaOC: no effect
  Serum insulin level after tail vein injection of GlaOC: no effect
Male C57BL/6J mice [1]; mice fasted 5 h, 7 µg/kg i.p.
  Serum insulin concentration, i.p. 7 µg/kg alone: no effect on serum insulin
Male C57BL/6J mice [1]; mice fasted 5 h
  Serum insulin concentration, oral 10 µg/kg: tended to increase serum insulin, although this effect did not achieve statistical significance
STC-1 cells; 60 min
  Effect on GLP-1 secretion at the concentrations examined: did not affect GLP-1 secretion
Male C57BL/6J mice [4]
  Serum GLP-1 concentration after oral administration: a similar effect was apparent

## Osteocalcin (YLGASVPSPDPLEPTREQCELNPACDELSDQYGLKTAYKRIYGITI; ends and bridges not checked; cysteine pairing not given here; UniProt P86546 50-95, looked up) [osteocalcin, a peptide composed of 46 amino acids; form (uc- or Gla-) not specified at the place]
[5]
  Absorption rate at fivefold higher oral dose: 0.8%
  Absorption rate at twofold higher oral dose: 2%

## ^125I-labeled ucOC: ucOC iodinated with Na^125I as GST fusion, released with thrombin (YLGASVPSPDPLEPTREQCELNPACDELSDQYGLKTAYKRIYGITI; ends and bridges not checked; also: 125I label, site not given here; UniProt P86546 50-95, looked up)
[6]; 5 µg/kg (4,000 to 6,000 cpm) i.p. or orally, assuming total blood volume of 2 ml
  Gross absorption, % of the administered radioactivity in the circulation at 30 min: 2 to 8%
[6]; 5 µg/kg i.p. or orally
  Blood radioactivity at 60 min compared with 30 min: increased further or decreased to a small extent

## calcitonin
[7]
  Rate of absorption from the intestine into the bloodstream: ~5%

## exendin(9–39) [reference compound]
Male C57BL/6J mice [1]; exendin(9–39) 25 nmol/kg i.p. 30 min before exendin-4 25 nmol/kg i.p.
  Antagonism of the exendin-4-induced increase in serum insulin: sensitive to prior injection of exendin(9–39)
Male C57BL/6J mice [1]; sitagliptin orally, exendin(9–39) i.p., data not shown
  Effect of exendin(9–39) on the sitagliptin-induced increase in serum insulin: blocked by administration of exendin(9–39)

## uncarboxylated osteocalcin (YLGASVPSPDPLEPTREQCELNPACDELSDQYGLKTAYKRIYGITI; ends and bridges not checked; cysteine pairing not given here; UniProt P86546 50-95, looked up) [ucOC, recombinant mouse uncarboxylated osteocalcin, cleaved from a glutathione S-transferase fusion protein produced in bacteria]
Male C57BL/6J mice [2]; mice fasted 5 h, blood 20 min after i.p. injection, no DPP-IV inhibitor pretreatment, five to seven mice
  Serum GLP-1 concentration, i.p., without sitagliptin: increase in the serum concentration of GLP-1, but with only statistically insignificance
Male C57BL/6J mice [2]; mice fasted 5 h, oral sitagliptin 1 µg/kg 30 min before, 7 µg/kg i.p., blood 20 min later
  Serum GLP-1 concentration, i.p. 7 µg/kg, sitagliptin-pretreated: significant increase
Male C57BL/6J mice [2]; mice fasted 5 h, oral sitagliptin 1 µg/kg 30 min before, 10 µg/kg i.p., blood 20 min later
  Serum GLP-1 concentration, i.p. 10 µg/kg, sitagliptin-pretreated: no such effect
Male C57BL/6J mice [2]; mice, i.p. >7 µg/kg
  Effect on GLP-1 secretion at intraperitoneal doses of >7 µg/kg: markedly diminished
Male C57BL/6J mice [3]; 30 ng per animal, tail vein, mice fasted 5 h
  Serum concentration of GLP-1 at 30 min after i.v. injection: further increased
Male C57BL/6J mice [3]; 30 ng per animal, tail vein, mice fasted 5 h, 15 and 30 min
  Serum concentration of insulin after i.v. injection: increased as well
Male C57BL/6J mice [3]; 30 ng per animal, tail vein, mice fasted 5 h, four to six mice
  Serum concentration of GLP-1 at 15 min after i.v. injection: significantly increased
Male C57BL/6J mice [3]; 300 ng per animal i.v., fasted mice, data not shown
  Serum insulin concentration after i.v. 300 ng: no effect on the serum insulin concentration
Male C57BL/6J mice [3]; mouse, in vivo, iv
  Blood concentration after i.v. 300 ng: 28 nM
  Expected initial serum concentration after i.v. 30 ng: ~30 ng/mL
  Initial concentration in blood after i.v. 30 ng: 2.7 nM
Male C57BL/6J mice [1]; mice fasted 5 h, 7 µg/kg i.p.
  Serum insulin concentration, i.p. 7 µg/kg alone: significant increase
Male C57BL/6J mice [1]; mice fasted 5 h
  Serum insulin concentration, oral 10 µg/kg: Essentially identical results
Male C57BL/6J mice [1]; oral sitagliptin 1 µg/kg 30 min before 7 µg/kg i.p.
  Serum insulin increase, i.p. 7 µg/kg with sitagliptin pretreatment: enhanced by sitagliptin
Male C57BL/6J mice [1]; oral sitagliptin 1 µg/kg, 7 µg/kg i.p., exendin(9–39) 25 nmol/kg i.p.
  Serum insulin increase, i.p. 7 µg/kg with sitagliptin and exendin(9–39): abolished by exendin(9–39)
STC-1 cells; 60 min, 30 ng/ml
  Effect on GLP-1 secretion at 30 ng/ml: no longer apparent
STC-1 cells; >10 ng/ml
  Effect on GLP-1 secretion at concentrations of >10 ng/ml: markedly diminished
Male C57BL/6J mice [4]
  Serum GLP-1 concentration after oral administration: increased the serum concentration of GLP-1 in a dose-dependent manner
